Source: US7732200B2, “Materials and methods for nerve grafting, selection of nerve grafts, and in vitro nerve tissue culture” (University of Florida Research Foundation, Inc., priority 2001, dated 2010)

Experiments:
CSPG = CSPG neoepitope immunostaining of injured sciatic nerve after a single in vivo injection; design: species or system rat; conditions: 1 U in 2 μl injected 2 mm distal to injury; 4 days (transection) or 2 days (crush)
Procedure: (§1) Surgical procedures for nerve transection and nerve crush experiments. All surgical procedures were performed according to Institutional Animal Care and Use Committee (IACUC) approved protocols. Young adult SPRAGUE DAWLEY rats (HARLAN Indianapolis, Ind.) were deeply anesthetized with xylazine (15 mg/kg, i.m.) followed by ketamine-HCl (110 mg/kg, i.p.). Six animals received bilateral nerve crush injuries. Sciatic nerves were exposed and then crushed with firm pressure for thirty seconds with a DUMONT #5 forceps at a site 4 mm distal to the tendon of the internal obdurator. The crush site was marked with an epineurial suture. In a separate set of experiments, eight rats received bilateral sciatic nerve transection injuries using serrated scissors. The proximal and distal stumps were […] by epineurial neurorrhaphy using 9-0 ETHILON sutures. Fibrin glue (fibrinogen and thrombin) was then applied to stabilize the union. In both injury models, the right sciatic nerves were injected 2-mm distal to the injury with chondroitinase ABC (1 U in 2 μl) (high-purity, protease-free; SIGMA CHEMICAL CO., St. Louis, Mo.). Left sciatic nerves (with the same injury as the right side) were injected with vehicle alone (0.1% bovine serum albumin in PBS). […]
(§2) Immunocytochemistry. Axonal regeneration was assessed by GAP-43 immunofluorescence and digital image analysis. […]

rat sciatic nerve = assay: Human-to-rat acellular nerve xenograft model (GAP-43 profiles); type: in vivo; conditions: acellular human nerve fascicle grafts in rat, 8 days, 2 rats
Procedure: In the following experiments, the hypothesis that chondroitinase treatment improves nerve regeneration through acellular human nerve grafts in a rat xenograft model was tested. Subunits (individual fascicles) taken from human nerves were treated en bloc with vehicle or chondroitinase ABC. Ten-mm interpositional nerve grafts were joined to the rat host sciatic nerve by epineurial neurorrhaphy reinforced with fibrin glue. Each of 2 host rats received bilateral grafts, one vehicle-treated and one chondroitinase-treated graft. Regeneration was initially examined after 8 days. Axonal growth was assessed at specified spatial intervals within the graft by scoring GAP-43-immunopositive profiles in transverse sections.

sciatic nerve [1] = assay: Axonal regeneration after bilateral sciatic nerve crush injury (axonotmesis); type: in vivo, rat; conditions: 1 U in 2 μl; 2 days after injury; 6 nerves per condition
Procedure: as §1, with “union.” for “union. In both injury models, the right sciatic nerves were injected 2-mm distal to the injury with chondroitinase ABC (1 U in 2 μl) (high-purity, protease-free; SIGMA CHEMICAL CO., St. Louis, Mo.). Left sciatic nerves (with the same injury as the right side) were injected with vehicle alone (0.1% bovine serum albumin in PBS).”
as §2
The hypothesis that chondroitinase treatment improves axonal growth through the site of nerve crush injury was tested. […] Regenerating axons were labeled by GAP-43 immunofluorescence and scored by digital image analysis. […]

sciatic nerve [2] = assay: Axonal regeneration after sciatic nerve transection (neurotmesis) and neurorrhaphic repair; type: in vivo, rat

For chondroitinase ABC, the “CSPG degradation in extracellular matrix around the injection site” value (CSPG) was “substantially, if not completely, degraded CSPG”, the “average number of axons (GAP-43-immunopositive profiles) entering grafts vs control grafts” value (rat sciatic nerve) was “more than three-fold greater” and the “axonal regeneration after nerve crush injury (GAP-43 immunoreactivity) vs vehicle” value (sciatic nerve [1]) was “not significantly effected”. For the same substance, the “score of axons immediately distal to the coaptation vs control” value (sciatic nerve [2]; 1 U in 2 μl, 4 days after injury, 7 nerves per condition) was “two-fold greater”, the “animals in which the number of axons entering the distal nerve was greater than in the control nerve” value (sciatic nerve [2]; 4 days after injury) was 7/7 and the “propensity of axons to regrow within basal laminae of the distal nerve” value (sciatic nerve [2]; GAP-43 and laminin double-immunolabeling) was “unaltered”. For the same substance, the “animals with increases greater than 3.5-fold” value (sciatic nerve [2]; axons immediately distal to coaptation, 4 days) was 3/7.
